How the values were obtained:
Type in all cases: cell-based, C57BL/6 mice
[1] = system: islets; assay: Islet mitochondrial hyperpolarization by Rhodamine 123 fluorescence
Method: The effects of hypoxia and intermittent hypoxia preconditioning on calcium were paralleled by changes in insulin secretion and mitochondrial potential, as measured by off-chip insulin ELISA and Rhodamine 123 fluorescence, respectively. Insulin fractions were collected at 1 minute intervals during flow, with a stop-flow incubation period during the glucose exposure, as shown in FIG. 10A. The hypoxic pulse rendered insulin response down to basal levels (even drifting below baseline) while preconditioning improved insulin to 85% of normoxia while exposed to hypoxia. However, all insulin samples were collected in the same manner to account for this issue. Mitochondria hyperpolarization, monitored with Rhodamine uptake and self-quenching, was improved with IH preconditioning compared to hypoxia exposure alone. […] Islets were incubated in 100 μM diazoxide for 10 minutes and washed in Krebs buffer for 10 minutes prior to hypoxia and glucose stimulation. […] Both mitochondrial hyperpolarization and insulin secretion were improved with diazoxide compared to IH+5HD, as shown in FIG. 10B. […] All fluids perfused through the MIIH device were prepared in Krebs Ringer bicarbonate buffer: 129 mM NaCl, 5 mM NaHCO3, 4.7 mM KCl, 1.2 mM KH2PO4, 1 mM CaCl2.2H2O, 1.2 mM MgSO4.7H2O, 10 mM HEPES pH 7.35-7.40. […] FURA was excited at 340 and 380 nm and measured at 510 nm while Rho123 was excited at 495 nm and measured at 530 nm FURA measurements were expressed as a ratio of 340 nm over 380 nm intensities. […] The data was then normalized against the standard normoxic pulse to minimize variation between experiments and the results were expressed as “FURA Ratio %”. Rho123 measurement and the associated hyperpolarization drop were also analyzed similarly by normalizing against a normoxic standard. The insulin ELISA timepoints, measured in ng/mL, was expressed as an index of the maximum value over the baseline average to account for the stop flow during glucose/hypoxic incubation and also varying number of islets in the experiments. […]

[2] = system: islets; assay: Islet glucose-stimulated calcium response (FURA ratio) under hypoxia in microfluidic device
Method: To quantify their response to hypoxia, FURA-incubated islets were loaded into the multimodal device and exposed to 21%, 10%, and 5% oxygen while monitoring their calcium responses. In the GSIR mechanism, the calcium response correlates with insulin secretion, thus a stimulatory glucose pulse will result in a pulse in intracellular calcium. Under 21% oxygen flow, normoxic for ex vivo islets, the calcium responded with standard bi-phasic profile with magnitudes 1.3 times above their baseline, as shown in FIG. 8A. Note that subsequent hypoxic conditions were normalized against this normoxic pulse. When the islets were exposed to 5% hypoxia for 30 minutes (under zero flow), their calcium response lost both pulse magnitude as well as phase information. […] Quantitatively, the pulse height was depressed below 50% of the normoxic pulse, for both 10% and 5% hypoxia.
Islets were incubated in 100 μM diazoxide for 10 minutes and washed in Krebs buffer for 10 minutes prior to hypoxia and glucose stimulation. […] Both mitochondrial hyperpolarization and insulin secretion were improved with diazoxide compared to IH+5HD, as shown in FIG. 10B.
C57BL/6 mice were sacrificed as islet donors for the murine islet experiments. 5 ml collagenase P solution at 0.375 mg/ml in HBSS was prepared for each animal and kept on ice. The animal was euthanized with CO2 and 3% isoflurane followed by cervical dislocation to ensure no discomfort. The animal was disinfected with 70% ethanol before making a V-incision at the genital area and moving the bowel to clearly expose the bile duct. The ampulla on the surface of duodenum was clamped with a hemostat. The pancreas was then distended (inflated) through the bile duct with a 30-gauge needle with 5 ml syringe containing 2 ml of cold collagenase solution, starting at the gall bladder. The pancreas was then removed and placed in a 15 ml tube containing 2 ml of collagenase solution in a 37° C. water bath for 12 minutes. Then, 10 ml of cold HBSS was added to stop the digestion when 80% of the pancreas has disintegrated. […]

[3] = system: islets; assay: Islet insulin secretion, off-chip insulin ELISA
Method: The effects of hypoxia and intermittent hypoxia preconditioning on calcium were paralleled by changes in insulin secretion and mitochondrial potential, as measured by off-chip insulin ELISA and Rhodamine 123 fluorescence, respectively. Insulin fractions were collected at 1 minute intervals during flow, with a stop-flow incubation period during the glucose exposure, as shown in FIG. 10A. The hypoxic pulse rendered insulin response down to basal levels (even drifting below baseline) while preconditioning improved insulin to 85% of normoxia while exposed to hypoxia. However, all insulin samples were collected in the same manner to account for this issue. Mitochondria hyperpolarization, monitored with Rhodamine uptake and self-quenching, was improved with IH preconditioning compared to hypoxia exposure alone. […] Islets were incubated in 100 μM diazoxide for 10 minutes and washed in Krebs buffer for 10 minutes prior to hypoxia and glucose stimulation. […] Both mitochondrial hyperpolarization and insulin secretion were improved with diazoxide compared to IH+5HD, as shown in FIG. 10B. […] Glucose and Krebs buffer flow were only introduced while washing or stimulating the islets, and flow was stopped at all other times. […] The plates were read in a Biotek Synergy 2 plate reader. […] FURA was excited at 340 and 380 nm and measured at 510 nm while Rho123 was excited at 495 nm and measured at 530 nm FURA measurements were expressed as a ratio of 340 nm over 380 nm intensities. […] The data was then normalized against the standard normoxic pulse to minimize variation between experiments and the results were expressed as “FURA Ratio %”. Rho123 measurement and the associated hyperpolarization drop were also analyzed similarly by normalizing against a normoxic standard. The insulin ELISA timepoints, measured in ng/mL, was expressed as an index of the maximum value over the baseline average to account for the stop flow during glucose/hypoxic incubation and also varying number of islets in the experiments. […]

[4] = 100 μM diazoxide, 5% hypoxia, FIG. 10B
[5] = 100 μM diazoxide, not statistically significant

Compound | mitochondrial hyperpolarization compared to IH+5HD [1, 4] | mitochondrial hyperpolarization compared to IH preconditioning alone [1, 5] | preconditioning of islets under hypoxia (glucose calcium response) ([2]; 100 μM diazoxide 10 minutes, washed in Krebs buffer 10 minutes prior to 5% hypoxia and glucose stimulation) | calcium response compared to IH preconditioning alone [2, 5] | insulin secretion compared to IH+5HD [3, 4] | insulin response compared to IH preconditioning alone [3, 5] | mitochondrial hyperpolarization with 5HD ([1]; IH plus 5HD) | preconditioning of islets under hypoxia (FURA profile) ([2]; IH (1 m/1 m cycle, 60 min total) and 100 μM 5HD simultaneously) | preconditioned insulin response with 5HD ([3]; IH plus 5HD)
CC1=NS(=O)(=O)c2cc(Cl)ccc2N1 [diazoxide] | improved | less than that of IH preconditioning alone | provided preconditioning benefits | higher average | improved | higher average | – | – | –
CCCCCC(O)CCCC(=O)O (stereo not drawn) [5HD, 5-hydroxydecanoic acid] | – | – | – | – | – | – | decreased mitochondrial hyperpolarization | failed to be preconditioned | decoupling of preconditioned insulin response

— patent US20130295551A1, “MICROFLUIDIC DEVICE AND METHOD FOR MODULATING A GAS ENVIRONMENT OF CELL CULTURES AND TISSUES” (THE BOARD OF TRUSTEES OF THE UNIVERSITY OF ILLINOIS, priority 2012, published 2013)
